According to patent US20250082589A1, “PHENYLETHYLIDENEHYDRAZINE DIMERS AND METHODS OF USING SAME” (NEURAWELL THERAPEUTICS, priority 2021, published 2025):
Where two headings read alike, the source gives them in different places.

Legend:
MAO-A = molecular target: T1, MAO-A (Homo sapiens, UniProt P21397); details: cited from earlier work
T1 sequence (P21397 1-527): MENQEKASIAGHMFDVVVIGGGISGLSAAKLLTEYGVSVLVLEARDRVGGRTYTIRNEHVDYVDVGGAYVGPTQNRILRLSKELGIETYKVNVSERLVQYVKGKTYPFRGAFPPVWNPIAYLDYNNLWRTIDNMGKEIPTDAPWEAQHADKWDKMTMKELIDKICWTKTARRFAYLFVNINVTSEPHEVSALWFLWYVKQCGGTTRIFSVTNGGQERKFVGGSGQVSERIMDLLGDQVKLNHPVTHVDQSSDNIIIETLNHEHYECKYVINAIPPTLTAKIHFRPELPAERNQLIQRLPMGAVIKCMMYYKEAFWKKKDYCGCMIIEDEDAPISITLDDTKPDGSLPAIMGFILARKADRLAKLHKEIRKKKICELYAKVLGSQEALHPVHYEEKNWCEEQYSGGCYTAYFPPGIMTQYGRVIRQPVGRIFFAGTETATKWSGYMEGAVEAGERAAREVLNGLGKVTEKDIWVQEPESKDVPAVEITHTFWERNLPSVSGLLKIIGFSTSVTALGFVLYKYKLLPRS

[1] = 1H NMR stability of PEH sample 1830-011 over time and in different deuterated solvents; format: physicochemical
Description: ^1H NMR was employed to probe the stability of PEH sample 1830-011 both in terms of time after preparation and in different deuterated solvents. […] In Py-d6, about 10% of PEH was transformed to the azine. Additionally, a new sample from the obtained oil in sample 1830-011 in which the oil was prepared after 3 days storage in −20° C. under argon was prepared and measured directly in CDCl3. After 3 days, the contamination of PEH with azine was equal to 18% (the ratio of PEH:Azine was 82:18).

[2] = PEH stability tests by LCMS (batch 1830-023); format: physicochemical; details: stored at −80° C.
Description: See also FIG. 27, which illustrates the results from the stability tests of PEH. […] Compounds were separated on a Kinetix® 2.6 μm XB—C18 (4.6×50 mm), 110A, column no. 00B-4496-EO column using gradient elution with a column temperature of 25° C. at a flow of 1.0 mL/min. The elution scheme shown in Table 15 was used for chromatographic separation. Mobile phase C was 0.05% ammonium hydroxide in water (28.0-30.0% NH3 basis) and Mobile phase D was acetonitrile. The syringe washing solution was 20% MeOH. The MS conditions were a mass range of 100-1000 m/z and scan speed of 12 000 amu/sec.

[3] = LC-MS analysis of first preparative HPLC fraction in solution and after lyophilization; format: physicochemical
Description: See also FIG. 22A-C. […] Peak nos. […] Peak nos.
LCMS Method. The LCMS analysis was performed on a Dionex UHPLC Ultimate 3000 with DAD detector/Thermo Scientific ISQ EC-Mass Spectrometer with a wavelength range of 190-350 nm±4 nm. […] The elution scheme shown in Table 12 was used for chromatographic separation. Mobile phase C was 0.05% ammonium hydroxide in water (28.0-30.0% NH3 basis) and Mobile phase D was acetonitrile. The syringe washing solution was 20% MeOH. The MS conditions were a mass range of 100-1000 m/z and scan speed of 12 000 amu/sec.

MAO-B = molecular target: T2, MAO-B (Homo sapiens, UniProt P27338); details: cited from earlier work
T2 sequence (P27338 1-520): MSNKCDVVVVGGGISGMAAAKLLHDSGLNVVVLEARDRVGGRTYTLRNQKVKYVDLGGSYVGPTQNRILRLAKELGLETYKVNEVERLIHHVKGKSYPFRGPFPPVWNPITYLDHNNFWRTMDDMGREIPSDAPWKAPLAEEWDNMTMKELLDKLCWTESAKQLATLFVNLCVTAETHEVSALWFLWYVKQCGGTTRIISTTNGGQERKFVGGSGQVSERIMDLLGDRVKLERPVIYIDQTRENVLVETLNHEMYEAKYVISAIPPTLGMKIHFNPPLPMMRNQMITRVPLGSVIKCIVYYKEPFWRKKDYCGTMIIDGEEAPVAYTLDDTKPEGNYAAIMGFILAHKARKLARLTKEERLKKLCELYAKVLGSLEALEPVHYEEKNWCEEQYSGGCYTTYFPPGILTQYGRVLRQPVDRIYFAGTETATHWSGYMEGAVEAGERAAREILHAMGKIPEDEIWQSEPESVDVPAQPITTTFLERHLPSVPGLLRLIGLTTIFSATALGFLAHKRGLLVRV

[4] = PEH 1830-003B, NMR
[5] = pH stability studies at pH 9.2 and pH 7.4; format: physicochemical
From the text: Batch 1830-013. Although UPLC confirmed the presence of PEH and the azine (FIG. 6A), no signals due to either species were detected in the NMR in CDCl3 (FIG. 6B).

[6] = 1H NMR stability of azine sample 1830-012 over time and in different deuterated solvents; format: physicochemical; details: 1830-012 oil after 3 days storage in −20° C. under argon, new sample measured directly in CDCl3
Description: ^1H NMR was employed to probe the stability of azine sample 1830-012 both in terms of time after preparation and in different deuterated solvents.
Additionally, a new sample from the oil obtained in sample 1830-012, in which the oil was prepared after 3 days storage in −20° C. under argon, was prepared and measured directly in CDCl3.
After 3 days, the contamination of the azine with PEH was equal to 9% (the ratio of PEH:Azine was 9:91). […] Thus, it is theorized that purification cannot be accomplished by column chromatography. […] First, EtOH (2.0 mL) was added to 300 mg of crude product 1830-012 and heated to reflux. During refluxing, ˜1.0 mL of EtOH evaporated. The mixture was then slowly cooled to room temperature and then cooled to 0° C. After 3 days at 0° C., no precipitate was observed. In a second attempt, cold EtOH (3.0 mL) was added to 600 mg of crude product 1830-012 and the suspension was stirred at 0° C. for 15 minutes. The white precipitate was filtered (m=131 mg) and washed with small amounts of cold EtOH (see FIG. 5).

[7] = Stability under acidic or basic UPLC conditions; format: physicochemical
Description: Batch 1830-001. […] The purity of the sample was 20%.
The peak at R.T.=1.70 min corresponds to the azine according to mass spectrometry (FIG. 13B, bottom panel), and the azine was present at 69% purity.
UPLC Method. The UPLC analysis was performed on a Waters ACQUITY UPLC I-Class PLUS System with a Waters SQ Detector 2 in the wavelength range of 200-400 nm. Compounds were separated on an Acquity UPLC BEH C18 1.7 μm/130 Å (2.1×100 mm) column using gradient elution with a column temperature of 40° C. at a flow of 0.5 mL/min. The elution scheme shown in Table 11 was used for chromatographic separation. Mobile phase A was 0.05% ammonium hydroxide in water (28.0-30.0% NH3 basis) and Mobile phase B was acetonitrile. The syringe washing solution was 50% ACN, 50% water. The MS conditions were a mass range of […] and scan time of 0.15 s.

[8] = LC-MS analysis of azine yellow precipitate (1830-014) after dissolution and storage; format: physicochemical
Description: Crystallization was performed on 3.6 g of the crude azine product for 1830-014 using the second method as described above for 1830-012 (FIG. 9). White (m=0.490 g) and yellow (m=1.473 g) precipitates were obtained. LC-MS analysis was also performed on the azine sample obtained as a yellow precipitate (1830-014), with chromatograms obtained directly after dissolution (FIG. 10A) and 27 hours after dissolution (FIG. 10B). The quantitative results are described in Table 12 and Table 13 below. According to the LC-MS analysis using % relative area corresponding to the appropriate MS peaks, the azine sample obtained as a yellow precipitate was 96.24% azine. 27 hours after dissolution, the sample was 91.77% azine. After one month of storage at −20° C. under Argon, the sample was 91.56% azine (data not shown).
LCMS Method. The LCMS analysis was performed on a Dionex UHPLC Ultimate 3000 with DAD detector/Thermo Scientific ISQ EC-Mass Spectrometer with a wavelength range of 190-350 nm±4 nm. Compounds were separated on a Kinetix® 2.6 μm XB—C18 (4.6×50 mm), 110 A, column no. 00B-4496-EO column using gradient elution with a column temperature of 25° C. at a flow of 1.0 mL/min. The elution scheme shown in Table 12 was used for chromatographic separation. Mobile phase C was 0.05% ammonium hydroxide in water (28.0-30.0% NH3 basis) and Mobile phase D was acetonitrile. The syringe washing solution was 20% MeOH. The MS conditions were a mass range of 100-1000 m/z and scan speed of 12 000 amu/sec.

[9] = PEH 1830-011, first fraction after preparative HPLC and lyophilization

SMILES: NN=CCc1ccccc1 [PEH, phenylethylidenehydrazine]
- inhibition of MAO-A (MAO-A): weak and transient inhibitor
- contamination of PEH with azine ([1]; 1830-011 oil after 3 days storage in −20° C. under argon, new sample measured directly in CDCl3): 18%
- PEH transformed to the azine ([1]; PEH sample 1830-011 in Py-d6): about 10%
- Purity of PEH (summarized isomers), stability test ([2]; Extract (liq) in chloroform, after 1 day): 97.36
- Purity of PEH (summarized isomers), stability test ([2]; Extract (liq) in chloroform, after 2 days): 97.86
- Purity of PEH (summarized isomers), stability test ([2]; Extract (liq) in chloroform, after 3 days): 97.82
- Purity of PEH (summarized isomers), stability test ([2]; Extract (liq) in chloroform, after 4 days): 97.65
- Purity of PEH (summarized isomers), stability test ([2]; Extract (liq) in chloroform, after 7 days): 96.14
- Purity of PEH (summarized isomers), stability test ([2]; Extract (liq) in chloroform, after reaction): 98.49
- Purity of PEH (summarized isomers), stability test ([2]; solid (concentrated material), after 1 day): 68.46
- Purity of PEH (summarized isomers), stability test ([2]; solid (concentrated material), after 2 days): 69.82
- Purity of PEH (summarized isomers), stability test ([2]; solid (concentrated material), after 3 days): 64.26
- Purity of PEH (summarized isomers), stability test ([2]; solid (concentrated material), after 4 days): 66.89
- Purity of PEH (summarized isomers), stability test ([2]; solid (concentrated material), after 7 days): 67.38
- Purity of PEH (summarized isomers), stability test ([2]; solid (concentrated material), after reaction): 81.17
- stability during lyophilization [3]: undergoes decomposition during lyophilization
- % PEH by LCMS [3, 9]: 12.70%
- % azine in PEH sample by LCMS [3, 9]: 85.89%
- % PEH by LCMS ([3]; PEH 1830-011, first fraction after preparative HPLC, solution, before lyophilization): 92.66%
- % azine in PEH sample by LCMS ([3]; PEH 1830-011, first fraction in solution after preparative HPLC): 4.14%
- inhibition of MAO-B (MAO-B): weak and transient inhibitor
- level of azine impurity during drying ([4]; after drying for 15 min): 7%
- level of azine impurity during drying ([4]; after drying for 3 hours): 22%
- pH stability ([5]; pH 7.4): the azine and the aldehyde are formed
- pH stability ([5]; pH 9.2): stable at pH=9.2

SMILES: C(/Cc1ccccc1)=N\N=C\Cc1ccccc1 [azine, (1E,2E)-1,2-bis(2-phenylethylidene)hydrazine]
- contamination of the azine with PEH [6]: 9%
- stability in acidic conditions (UPLC) ([7]; acidic conditions): not stable in acidic conditions
- stability in basic conditions (UPLC) ([7]; basic conditions, sample 1830-001): stable in basic conditions
- stability during lyophilization ([3]; after preparative HPLC): remained stable after lyophilization
- % azine by LC-MS relative area ([3]; azine 1830-015, first fraction after lyophilization): 99.93%
- % azine by LC-MS relative area ([3]; azine 1830-015, first fraction after preparative HPLC, in solution): 99.61%
- pH stability ([5]; pH 7.4): undergoes rapid hydrolysis to the aldehyde
- pH stability ([5]; pH 9.2): stable at pH 9.2
- % azine by LC-MS relative area ([8]; yellow precipitate 1830-014, 27 hours after dissolution): 91.77%
- % azine by LC-MS relative area ([8]; yellow precipitate 1830-014, after one month of storage at −20° C. under Argon): 91.56%
- % azine by LC-MS relative area ([8]; yellow precipitate 1830-014, directly after dissolution): 96.24%
